Among the data in patent US11225469B2, “Inhibitors of phosphoglycerate dehydrogenase (PHGDH) and uses thereof” (Whitehead Institute for Biomedical Research, priority 2015, dated 2022) are IC50 values, retold here.

This assay addresses PHGDH (Homo sapiens (Human), UniProt O43175). Briefly: PHGDH inhibition, coupled assay with PSAT1/PSPH and diaphorase/resazurin readout. It counts as biochemical. The note with it: Table E9; mixture with PSAT1, PSPH; diaphorase/resazurin reporter. Background: Alamar Blue is a resazurin reagent that responds to reducing activity.

One may read the IC50 as the midpoint of a concentration-inhibition curve.

PHGDH, sequence (O43175 whole entry): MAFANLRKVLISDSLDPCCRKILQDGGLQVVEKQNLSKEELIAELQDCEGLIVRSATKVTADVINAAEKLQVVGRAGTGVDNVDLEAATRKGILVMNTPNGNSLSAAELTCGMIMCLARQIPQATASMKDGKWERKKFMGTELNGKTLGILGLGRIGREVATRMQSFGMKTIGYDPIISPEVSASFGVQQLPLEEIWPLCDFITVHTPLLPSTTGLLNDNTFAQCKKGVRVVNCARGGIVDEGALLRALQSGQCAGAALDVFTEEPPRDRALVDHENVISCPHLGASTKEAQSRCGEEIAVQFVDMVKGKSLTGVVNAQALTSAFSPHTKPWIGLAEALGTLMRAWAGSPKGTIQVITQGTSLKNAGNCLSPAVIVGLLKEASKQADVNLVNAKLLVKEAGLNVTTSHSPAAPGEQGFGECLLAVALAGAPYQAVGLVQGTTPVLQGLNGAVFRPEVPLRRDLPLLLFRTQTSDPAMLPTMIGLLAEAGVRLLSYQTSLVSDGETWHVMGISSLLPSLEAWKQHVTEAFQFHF
Procedure: Compounds of the invention were assayed for inhibition of the activity phosphoglycerate dehydrogenase (PHGDH). The compounds were assayed in a mixture comprising PHGDH, PSAT1, PSPH, NADH, and glutamate. Diaphorase and resazurin were used as a fluorescent reporter system.
In this endogenous pathway coupled assay, the production of NADH by PHGDH was measured through the diaphorasemediated reduction of resazurin (See, e.g., Chakraborty, S., Sakka, M., Kimura, T. & Sakka, K. “Characterization of a dihydrolipoyl dehydrogenase having diaphorase activity of Clostridium kluyveri.” BioscL Biotechnol. Biochem. 72, 982-988 (2008)).
PHGDH assay buffer contained 50 mM TEA pH 8.0, 10 mM MgCl2, 0.05% BSA, and 0.01% Tween-20. PHGDH enzyme buffer consisted of assay buffer with 20 nM PHGDH and 0.2 mg/mL diaphorase. PHGDH substrate buffer contained 0.3 mM NAD 1.25 mM glutamate, 0.1 mM 3-phosphoglycerate, 0.2 mM resazurin, 1 μM PSAT1, and 1 μM PSPH. qHTS was performed in 1536-well plates dispensed with a BioRAPTR FRD. Each well contained equal volumes of substrate buffer and assay buffer. Plates were read at 0 minutes and 20 minutes at room temperature with a ViewLux uHTS Microplate Imager (PerkinElmer). Follow-up assays were performed in black 384-well plates (Greiner) in 20 μL of enzyme buffer to which compounds were added in dose-response with an HP D300 digital dispenser (Hewlett-Packard), followed by addition of 20 μL of substrate buffer. Plates were incubated at room temperature (25° C.) and read at 0 and 20 minutes with a Spectramax M5 plate reader (Molecular Devices) in fluorescence intensity mode with a λex=550 nm and λem=600 nm (emission cutoff=590 nm).

`COc1ccnc(NC(=S)N2CCN(c3ccc4ccccc4n3)CC2)c1` [Compound 186]: the IC50 lay within 10 to 20 µM.
As for `COc1cccc(NC(=S)N2CCN(c3cc(Cl)cc(Cl)c3)CC2)n1` [Compound 187], the IC50 was at least 20 µM.
For `COc1cccc(NC(=S)N2CCN(c3cc(C(F)(F)F)cc(C(F)(F)F)c3)CC2)n1` [Compound 188], the IC50 is under 5 µM.
In the case of `COc1cccc(NC(=S)N2CCN(c3cccc(Cl)c3Cl)CC2)n1` [Compound 189], the IC50 is 10 to 20 µM.
Take `COc1cccc(NC(=S)N2CCN(c3ccc(Cl)cc3Cl)CC2)n1` [Compound 190]: the IC50 is under 5 µM.
Then `COc1cccc(NC(=S)N2CCN(c3ccc(Cl)c(Cl)c3)CC2)n1` [Compound 191], with at least 20 µM; and `COc1cccc(NC(=S)N2CCN(c3ccc(C(F)(F)F)cc3[N+](=O)[O-])CC2)n1` [Compound 192], with 10 to 20 µM.
Take `COc1cccc(NC(=S)N2CCN(c3ccccc3C(F)(F)F)CC2)n1` [Compound 193]: the IC50 is under 5 µM.
For `COc1cccc(NC(=S)N2CCN(c3cccc(C(F)(F)F)n3)CC2)n1` [Compound 194], the IC50 is 5 to 10 µM.
As to `COc1cccc(NC(=S)N2CCN(c3ncc(C(F)(F)F)cc3Cl)CC2)n1` [Compound 195], the IC50 was under 5 µM.
Regarding `COc1cccc(NC(=S)N2CCN(c3ccc4ccccc4n3)CC2)n1` [Compound 196], the IC50 was at least 20 µM.
For the compound `S=C(Nc1cc(Cl)ccn1)N1CCN(c2cc(Cl)cc(Cl)c2)CC1` [Compound 197], the IC50 is at least 20 µM.
For `FC(F)(F)c1cc(N2CCN(C(=S)Nc3cc(Cl)ccn3)CC2)cc(C(F)(F)F)c1` [Compound 198], the IC50 was at least 20 µM.
On to `S=C(Nc1cc(Cl)ccn1)N1CCN(c2ccc(Cl)cc2Cl)CC1` [Compound 199], for which the IC50 was at least 20 µM.
Turning to `S=C(Nc1cc(Cl)ccn1)N1CCN(c2ccc(Cl)c(Cl)c2)CC1` [Compound 200], the IC50 lay in the range of 10 to 20 µM.
Turning to `O=[N+]([O-])c1cc(C(F)(F)F)ccc1N1CCN(C(=S)Nc2cc(Cl)ccn2)CC1` [Compound 201], the IC50 lay within 10 to 20 µM.
Take `FC(F)(F)c1cnc(N2CCN(C(=S)Nc3cc(Cl)ccn3)CC2)c(Cl)c1` [Compound 202]: the IC50 lay within 10 to 20 µM.
The figure for `S=C(Nc1cc(Cl)ccn1)N1CCN(c2ccc3ccccc3n2)CC1` [Compound 203] is at least 20 µM.
On to `FC(F)(F)c1cccc(N2CCN(C(=S)Nc3nccc4cccnc34)CC2)c1` [Compound 204], for which the half-maximal inhibitory concentration (IC50) is 10 to 20 µM.
Then `Cc1cc(C)nc(NC(=S)N2CCN(c3cc(C#N)cc(C#N)c3)CC2)c1` [Compound 205], with at least 20 µM; and `Cc1cc(C)nc(NC(=S)N2CCN(c3cc(Cl)c(Cl)c(Cl)c3)CC2)c1` [Compound 206], with at least 20 µM.
`Cc1cc(C)nc(NC(=S)N2CCN(c3cc(Cl)cc(Cl)n3)CC2)c1` [Compound 207]: the IC50 is at least 20 µM.
As to `Cc1cc(C)nc(NC(=S)N2CCN(c3ccc(F)c(F)c3F)CC2)c1` [Compound 208], the IC50 fell in the range of 10 to 20 µM.
For the compound `Cc1cc(C)nc(NC(=S)N2CCN(c3ccc(C(F)(F)F)cc3C(F)(F)F)CC2)c1` [Compound 209], the IC50 fell in the range of 5 to 10 µM.
As for `Cc1cc(C)nc(NC(=S)N2CCN(c3ccc(Cl)cc3C(F)(F)F)CC2)c1` [Compound 210], the IC50 fell in the range of 10 to 20 µM.
With `Cc1cc(C)nc(NC(=S)N2CCN(c3ccc(Cl)c(C(F)(F)F)c3)CC2)c1` [Compound 211], the IC50 was 10 to 20 µM.
Then `Cc1cc(C)nc(NC(=S)N2CCN(c3ccc(C(F)(F)F)cc3Cl)CC2)c1` [Compound 212], with 5 to 10 µM; and `Cc1cc(C)cc(N2CCN(C(=S)Nc3cc(C)cc(C)n3)CC2)c1` [Compound 213], with 10 to 20 µM.
Regarding `Cc1cc(C)nc(NC(=S)N2CCN(c3ccc(F)c(F)c3)CC2)c1` [Compound 214], the IC50 lay within 5 to 10 µM.
With `Cc1cc(C)nc(NC(=S)N2CCN(c3ccc(F)c(Cl)c3)CC2)c1` [Compound 215], the half-maximal inhibitory concentration (IC50) lay in the range of 5 to 10 µM.
Turning to `COc1cc(OC)cc(N2CCN(C(=S)Nc3cc(C)cc(C)n3)CC2)c1` [Compound 216], the IC50 was 10 to 20 µM.
Regarding `Cc1cc(C)nc(NC(=S)N2CCN(c3ccc([N+](=O)[O-])cc3Cl)CC2)c1` [Compound 217], the IC50 lay in the range of 10 to 20 µM.
On to `Cc1cc(C)nc(NC(=S)N2CCN(c3ccc(Cl)cc3[N+](=O)[O-])CC2)c1` [Compound 218], for which the IC50 was in the range of 5 to 10 µM.
As for `Cc1cc(C)nc(NC(=S)N2CCN(c3ccc(Cl)cc3F)CC2)c1` [Compound 219], the IC50 is 5 to 10 µM.
For `Cc1cc(C)nc(NC(=S)N2CCN(c3cc(Cl)c(Cl)cc3Cl)CC2)c1` [Compound 220], the IC50 is at least 20 µM.
As for `Cc1cc(C)nc(NC(=S)N2CCN(c3ccc(Cl)c(Cl)c3Cl)CC2)c1` [Compound 221], the IC50 was at least 20 µM.
Regarding `Cc1nc(CN(C)c2ncnc3ccc(-c4ccc5[nH]ncc5c4)cc23)cs1` [Compound 222], the 50% inhibitory concentration (IC50) was at least 20 µM.
On to `Cc1cc(C)nc(NC(=S)N2CC3CN(c4ccc(Cl)cc4C(F)(F)F)CC3C2)c1` (stereo not drawn) [Compound 223], for which the IC50 was in the range of 10 to 20 µM.
With `Cc1ccnc(NC(=S)N2CC3CN(c4ccc(Cl)cc4C(F)(F)F)CC3C2)c1` (stereo not drawn) [Compound 224], the IC50 is at least 20 µM.
The figure for `Cc1cc(C)nc(NC(=S)N2CC3CN(c4ncc(C(F)(F)F)cc4Cl)CC3C2)c1` (stereo not drawn) [Compound 225] is 10 to 20 µM.
Then `S=C(Nc1cc(Cl)ccn1)N1CCN(c2cccc(Cl)c2Cl)CC1` [Compound 226], with 10 to 20 µM.
Regarding `Cc1ccnc(NC(=S)N2CC3CN(c4ncc(C(F)(F)F)cc4Cl)CC3C2)c1` (stereo not drawn) [Compound 227], the IC50 lay within 10 to 20 µM.
Then `FC(F)(F)c1cccc(N2CCN(C(=S)Nc3nc4ccccc4[nH]3)CC2)c1` [Compound 228], with under 5 µM; and `Cn1c(NC(=S)N2CCN(c3cccc(C(F)(F)F)c3)CC2)nc2ccccc21` [Compound 229], with 5 to 10 µM; and `FC(F)(F)c1cccc(N2CCN(C(=S)Nc3nc(-c4ccccc4)c[nH]3)CC2)c1` [Compound 230], with under 5 µM.
Turning to `Nc1nc(NC(=S)N2CCN(c3cccc(C(F)(F)F)c3)CC2)n[nH]1` [Compound 231], the IC50 is at least 20 µM.
For the compound `FC(F)(F)c1cccc(N2CCN(C(=S)Nc3nc[nH]n3)CC2)c1` [Compound 233], the half-maximal inhibitory concentration (IC50) fell in the range of 5 to 10 µM.
`FC(F)(F)c1cccc(N2CCN(C(=S)Nc3nc[nH]n3)CC2)c1` [Compound 234]: the IC50 was at least 20 µM.
Regarding `FC(F)(F)c1cccc(N2CCN(C(=S)Nc3cc[nH]n3)CC2)c1` [Compound 236], the half-maximal inhibitory concentration (IC50) lay in the range of 5 to 10 µM.
Regarding `FC(F)(F)c1cccc(N2CCN(C(=S)Nc3cc[nH]n3)CC2)c1` [Compound 237], the IC50 is at least 20 µM.
The figure for `N=C(NC(=S)N1CCN(c2cccc(C(F)(F)F)c2)CC1)c1ccccn1` [Compound 238] is at least 20 µM; for `Cc1ccc2nc(NC(=S)N3CCN(c4cccc(C(F)(F)F)c4)CC3)[nH]c2c1` [Compound 239] it is 10 to 20 µM; for `COc1ccc2nc(NC(=S)N3CCN(c4cccc(C(F)(F)F)c4)CC3)[nH]c2c1` [Compound 240] it is at least 20 µM.
Regarding `Cc1cc2nc(NC(=S)N3CCN(c4cccc(C(F)(F)F)c4)CC3)[nH]c2cc1C` [Compound 241], the IC50 is at least 20 µM.
For the compound `Cc1ccc2nc(NC(=S)N3CCN(c4cccc(C(F)(F)F)c4)CC3)[nH]c2c1` [Compound 242], the IC50 is under 5 µM.
On to `COc1ccc2nc(NC(=S)N3CCN(c4cccc(C(F)(F)F)c4)CC3)[nH]c2c1` [Compound 243], for which the IC50 is under 5 µM.
Take `Cc1cc2nc(NC(=S)N3CCN(c4cccc(C(F)(F)F)c4)CC3)[nH]c2cc1C` [Compound 244]: the IC50 was under 5 µM.
Take `O=C(Nc1cccc([S+](=O)([O-])Nc2ccccc2F)c1)c1cccs1` [Compound 245]: the IC50 is at least 20 µM.
For the compound `FC(F)(F)c1cccc(N2CCN(C(=S)Nc3nc4ccc(C(F)(F)F)cc4[nH]3)CC2)c1` [Compound 246], the IC50 lay within 5 to 10 µM.
Then `Cc1cccc2nc(NC(=S)N3CCN(c4cccc(C(F)(F)F)c4)CC3)[nH]c12` [Compound 247], with under 5 µM; and `COc1ccccc1N[S+](=O)([O-])c1cc(NC(=O)Cc2ccc(Cl)cc2Cl)ccc1N1CCCC1` [Compound 248], with at least 20 µM; and `COc1ccccc1N[S+](=O)([O-])c1cc(NC(=O)c2ccc3ccccc3n2)ccc1N1CCCC1` [Compound 249], with at least 20 µM.
Then `Cc1cc(C)nc(NC(=S)N2CCC(Nc3cccc(C(F)(F)F)c3)CC2)c1` [Compound 250], with under 5 µM; and `Cc1cc(C)nc(NC(=S)N2CCCC(Nc3cccc(C(F)(F)F)c3)C2)c1` (stereo not drawn) [Compound 251], with under 5 µM.
Consider `Cc1cc(C)nc(NC(=S)N2CCCC(Nc3ccc(C(F)(F)F)cc3)C2)c1` (stereo not drawn) [Compound 252], for which the IC50 is under 5 µM.
Regarding `Cc1cc(C)nc(NC(=S)N2CCN(C3CCCCC3)CC2)c1` [Compound 253], the IC50 was in the range of 10 to 20 µM.
Take `Cc1cc(C)nc(NC(=S)N2CCC(Cc3ccccc3)CC2)c1` [Compound 254]: the IC50 was under 5 µM.
The figure for `Cc1cc(C)nc(NC(=S)N2CCN(CC3CCCCC3)CC2)c1` [Compound 255] is under 5 µM.
Take `Cc1cc(C)nc(NC(=S)N2CCN(CCN3CCCCC3)CC2)c1` [Compound 256]: the IC50 was at least 20 µM.
As to `Cc1cc(C)nc(NC(=S)N2CCC(C(=O)N3CCOCC3)CC2)c1` [Compound 257], the IC50 was at least 20 µM.
Consider `Cc1cc(C)nc(NC(=S)N2CCC(Nc3ccc(C(F)(F)F)cc3)CC2)c1` [Compound 258], for which the IC50 was under 5 µM.
For the compound `CCOC(=O)N1CCN(C(=S)Nc2cc(C)cc(C)n2)CC1` [Compound 259], the 50% inhibitory concentration (IC50) is at least 20 µM.
Turning to `Cc1cc(C)nc(NC(=S)N2CCC(C(=O)N3CCCCC3)CC2)c1` [Compound 260], the IC50 was at least 20 µM.
`Cc1cc(C)nc(NC(=S)N2CCN(C(=O)c3cccc(C(F)(F)F)c3)CC2)c1` [Compound 261]: the IC50 fell in the range of 5 to 10 µM.
The figure for `Cc1cc(C)nc(NC(=S)N2CCCC(NC(=O)c3cccc(C(F)(F)F)c3)C2)c1` (stereo not drawn) [Compound 262, N-(1-((4,6-dimethylpyridin-2-yl)carbamothioyl)piperidin-3-yl)-3-(trifluoromethyl)benzamide] is under 5 µM.
